{
  "source": "patent US12428406B2",
  "about": "(PMV Pharmaceuticals, Inc., priority 2019, dated 2025)",
  "data": [
    {"target": "T1, p53 Y220C (Homo sapiens, UniProt P04637, Y220C)", "T1 construct": "The recombinant protein was a truncation mutant containing only amino acids 94-312 of p53; made in house; host or cells: E. coli", "T1 sequence (P04637 94-312, change not shown)": "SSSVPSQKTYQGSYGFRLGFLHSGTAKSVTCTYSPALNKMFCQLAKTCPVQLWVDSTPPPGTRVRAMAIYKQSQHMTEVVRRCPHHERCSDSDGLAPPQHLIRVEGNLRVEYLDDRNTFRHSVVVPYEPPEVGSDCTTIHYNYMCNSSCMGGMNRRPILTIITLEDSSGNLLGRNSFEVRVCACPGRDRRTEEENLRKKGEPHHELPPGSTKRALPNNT", "assay": "In vitro DNA binding activity assay (HTRF / TR-FRET): stabilization of p53 Y220C and increase of its DNA binding activity", "type": "biochemical", "conditions": "recombinant His-tagged p53 Y220C DNA binding domain (aa 94-312), biotin-labeled consensus DNA, incubated at 27° C. or 29° C. for 60 min", "how_it_was_run": "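E. coli His-p53 Y220C + biotin consensus DNA; anti-His-APC/SA-Eu TR-FRET. SC150 vs no-compound.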", "values": [
      {"compound": "COCC(O)CN1CCC(Nc2cccc3c2cc(C#CCNc2ccc(C(C)(C)C#N)cc2OC)n3CC(F)(F)F)CC1", "note": "(stereo not shown) [Compound 665A, 2-(4-{[3-(4-{[1-(2-hydroxy-3-methoxypropyl)piperidin-4-yl]amino}-1-(2,2,2-trifluoroethyl)-1H-indol-2-yl)prop-2-yn-1-yl]amino}-3-methoxyphenyl)-2-methylpropanenitrile]", "SC150 (concentration of the compound required to increase the DNA binding activity by 50%)": "+ (+ = 0 μM ≤ SC150 < 0.05 μM)"},
      {"compound": "CNC(=O)c1ccc(NCC#Cc2cc3c(N[C@H]4CC[C@H](N5CCOCC5)CC4)cccc3n2CC(F)(F)F)c(OC)c1", "note": "[Compound 172A, 3-methoxy-N-methyl-4-{[3-(4-{[(1R,4R)-4-(morpholin-4-yl)cyclohexyl]amino}-1-(2,2,2-trifluoroethyl)-1H-indol-2-yl)prop-2-yn-1-yl]amino}benzamide]", "SC150 (concentration of the compound required to increase the DNA binding activity by 50%)": "+ (+ = 0 μM ≤ SC150 < 0.05 μM)"},
      {"compound": "CCN(CC)[C@H]1CC[C@H](Nc2cccc3c2cc(C#CCNc2ccc(S(C)(=O)=O)cc2OC)n3CC(F)(F)F)CC1", "note": "[Compound 162A, (1R,4R)-N^1,N^1-diethyl-N4-(2-{3-[(4-methanesulfonyl-2-methoxyphenyl)amino]prop-1-yn-1-yl}-1-(2,2,2-trifluoroethyl)-1H-indol-4-yl)cyclohexane-1,4-diamine]", "SC150 (concentration of the compound required to increase the DNA binding activity by 50%)": "+ (+ = 0 μM ≤ SC150 < 0.05 μM)"},
      {"compound": "COc1cc(C(F)(F)F)ccc1NCC#Cc1cc2c(N[C@H]3CC[C@H](N4CC5(COC5)C4)CC3)cccc2n1CC(F)(F)F", "note": "[Compound 277A, 2-(3-{[2-methoxy-4-(trifluoromethyl)phenyl]amino}prop-1-yn-1-yl)-N-[(1R,4R)-4-{2-oxa-6-azaspiro[3.3]heptan-6-yl}cyclohexyl]-1-(2,2,2-trifluoroethyl)-1H-indol-4-amine]", "SC150 (concentration of the compound required to increase the DNA binding activity by 50%)": "++ (++ = 0.05 μM ≤ SC150 < 0.1 μM)"},
      {"compound": "COc1cc(S(C)(=O)=O)ccc1NCC#Cc1cc2c(NC(=O)N[C@H]3CC[C@@H](N(C)C)CC3)cccc2n1CC(F)(F)F", "note": "[Compound 10A, 3-(2-{3-[(4-methanesulfonyl-2-methoxyphenyl)amino]prop-1-yn-1-yl}-1-(2,2,2-trifluoroethyl)-1H-indol-4-yl)-1-[(1S,4S)-4-(dimethylamino)cyclohexyl]urea]", "SC150 (concentration of the compound required to increase the DNA binding activity by 50%)": "++++ (++++ = 0.2 μM ≤ SC150 < 1 μM)"},
      {"compound": "COc1cc(C(=O)Nc2nccs2)ccc1NCC#Cc1cc2c(N[C@@H]3CCN(C)C[C@@H]3F)cccc2n1CC(F)(F)F", "note": "[Compound 917A]", "SC150 (concentration of the compound required to increase the DNA binding activity by 50%)": "+ (+ = 0 μM ≤ SC150 < 0.05 μM)"},
      {"compound": "COCCN(C)[C@H]1CC[C@@H](Nc2cccc3c2cc(C#CCNc2ccc(S(C)(=O)=O)cc2OCC#N)n3CC(F)(F)F)CC1", "note": "[Compound 150A]", "SC150 (concentration of the compound required to increase the DNA binding activity by 50%)": "+ (+ = 0 μM ≤ SC150 < 0.05 μM)"}
    ]}
  ]
}
